# Assay results taken from patent US9783505B2, “Substituted diaminopyrimidyl compounds, compositions thereof, and methods of treatment therewith” (Signal Pharmaceuticals, LLC, priority 2013, dated 2017).
# Columns and labels:
# PKC delta = target: T1, PKC delta (Homo sapiens, UniProt Q05655); test: PKC delta Assay (384-well time resolved fluorescence, IMAP TR-FRET); assay type: biochemical; details: selectivity for PKC-theta over PKC-delta
# T1 construct: purchased Invitrogen
# Description: PKC delta Assay. A 384-well time resolved fluorescence assay was used to monitor PKC delta activity. The PKC delta assay was run in the following assay buffer: 50 mM HEPES pH 7.6, 10 mM MgCl2, 1 mM DTT, 0.01% Triton X-100, 0.01% BSA and 0.1 mM EDTA. To initiate the reaction, 200 nM of Fam-labeled S6-derived peptide (Molecular Devices) and 10 μM of ATP were mixed with 1.5 nM of PKC delta (Invitrogen), for a total assay volume of 25 μL in each well. The assay was incubated at room temperature for 2 hours and terminated using a 60 μL/well mixture of Detection Binding Solution: 70% IMAP Progressive Binding Buffer A, 30% IMAP Progressive Binding Buffer B, 1:600 Progressive Binding Reagent, and 1:400 TR-FRET Tb Donor (Molecular Devices). The assay plates were then incubated overnight at room temperature and read on the Perkin-Elmer Envision Reader.
# His-PKC-theta = target: T2, His-PKC-theta (Homo sapiens, UniProt Q04759); test: PKC-theta Assay (384-well time resolved fluorescence, IMAP TR-FRET); assay type: biochemical; details: read-out: Act. Level (IC50 in the PKC-theta Assay)
# T2 construct: His; purchased Invitrogen
# T2 sequence (Q04759 whole entry): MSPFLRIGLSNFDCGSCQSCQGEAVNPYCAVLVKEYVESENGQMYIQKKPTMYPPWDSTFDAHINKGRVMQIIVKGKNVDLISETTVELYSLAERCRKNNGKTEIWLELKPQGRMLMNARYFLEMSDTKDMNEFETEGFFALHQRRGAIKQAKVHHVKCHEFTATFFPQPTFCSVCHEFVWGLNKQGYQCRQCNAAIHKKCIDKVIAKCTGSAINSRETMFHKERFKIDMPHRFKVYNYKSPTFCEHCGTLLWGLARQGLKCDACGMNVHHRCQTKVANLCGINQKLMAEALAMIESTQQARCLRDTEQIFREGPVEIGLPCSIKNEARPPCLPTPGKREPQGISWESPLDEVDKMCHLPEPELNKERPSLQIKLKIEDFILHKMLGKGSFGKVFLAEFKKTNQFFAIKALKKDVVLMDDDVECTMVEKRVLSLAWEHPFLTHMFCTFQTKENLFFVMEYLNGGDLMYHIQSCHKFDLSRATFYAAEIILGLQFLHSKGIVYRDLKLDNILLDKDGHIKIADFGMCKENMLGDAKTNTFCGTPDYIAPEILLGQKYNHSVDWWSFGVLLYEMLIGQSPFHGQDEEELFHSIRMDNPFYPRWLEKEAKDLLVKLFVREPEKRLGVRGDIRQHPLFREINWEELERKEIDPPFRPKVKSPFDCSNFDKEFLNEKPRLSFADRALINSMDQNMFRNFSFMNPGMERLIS
# In short: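 Fam-labeled S6-derived peptide (200 nM) and 10 μM ATP were reacted with 142 pM enzyme for 2 h at room temperature in HEPES pH 7.6 buffer with MgCl2, DTT, Triton X-100, BSA and EDTA. The reaction was stopped with IMAP progressive binding reagent plus Tb donor, incubated overnight, then TR-FRET read.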
# T1 sequence (Q05655 whole entry): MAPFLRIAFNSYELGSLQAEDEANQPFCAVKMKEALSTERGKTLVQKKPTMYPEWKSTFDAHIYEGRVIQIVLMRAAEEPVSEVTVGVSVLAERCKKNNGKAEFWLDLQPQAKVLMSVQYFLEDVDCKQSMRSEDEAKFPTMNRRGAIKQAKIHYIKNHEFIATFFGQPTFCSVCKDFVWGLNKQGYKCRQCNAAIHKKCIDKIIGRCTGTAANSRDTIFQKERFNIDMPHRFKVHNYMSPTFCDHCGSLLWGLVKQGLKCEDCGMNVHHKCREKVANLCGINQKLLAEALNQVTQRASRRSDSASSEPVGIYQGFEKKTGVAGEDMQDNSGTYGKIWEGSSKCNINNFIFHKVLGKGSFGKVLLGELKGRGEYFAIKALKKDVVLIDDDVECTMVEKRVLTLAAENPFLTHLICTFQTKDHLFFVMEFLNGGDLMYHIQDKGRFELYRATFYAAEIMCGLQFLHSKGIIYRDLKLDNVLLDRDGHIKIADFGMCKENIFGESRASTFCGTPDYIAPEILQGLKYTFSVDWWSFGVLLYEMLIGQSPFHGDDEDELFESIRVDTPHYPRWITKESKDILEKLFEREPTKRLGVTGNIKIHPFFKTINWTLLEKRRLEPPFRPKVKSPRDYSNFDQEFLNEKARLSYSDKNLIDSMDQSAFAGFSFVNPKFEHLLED
SMILES,Sel. Level (ratio of IC50 PKC-delta/IC50 PKC-theta) (PKC delta),IC50 (His-PKC-theta)
CC1(C)[C@H](O)CCC[C@@H]1Nc1nc(NCCC2C(=O)Nc3ccccc32)ncc1C#N (stereo partly drawn) [Cmpd 307],G (selectivity between 5- and 20-fold (selectivity level G)),100 to 800 nM
CNS(=O)(=O)Cc1ccc2[nH]cc(CCNc3ncc(C#N)c(N[C@@H]4C[C@H](O)C4(C)C)n3)c2c1 [Cmpd 266],H (selectivity level of 5-fold or less (selectivity level H)),2000 to 10000 nM
COCc1noc(CCNc2ncc(C#N)c(N[C@@H]3CC[C@H](O)C(C)(C)C3)n2)n1 [Cmpd 199],H (selectivity level of 5-fold or less (selectivity level H)),2000 to 10000 nM
CC1(C)C[C@H](Nc2nc(NCCc3c[nH]c4cc(F)ccc34)ncc2C#N)CC[C@@H]1O [Cmpd 252],E (selectivity (Sel. Level=ratio of IC50 PKC-delta/IC50 PKC-theta) of >100-fold (selectivity level E)),< 100 nM
CC1(C)[C@@H](O)CCC[C@H]1Nc1nc(NCCC2C(=O)Nc3ccccc32)ncc1C#N (stereo partly drawn) [Cmpd 308],H (selectivity level of 5-fold or less (selectivity level H)),100 to 800 nM
CC1(C)C[C@H](Nc2nc(NCCc3cnccn3)ncc2C#N)CC[C@@H]1O [Cmpd 279],H (selectivity level of 5-fold or less (selectivity level H)),2000 to 10000 nM
CC1(C)[C@@H](O)C[C@H]1Nc1nc(NCCc2cncc(C(F)(F)F)c2)ncc1C#N [Cmpd 274],G (selectivity between 5- and 20-fold (selectivity level G)),800 to 2000 nM
CC1(C)C[C@H](Nc2nc(NCCn3cc(C#N)cn3)ncc2C#N)CC[C@@H]1O [Cmpd 213],H (selectivity level of 5-fold or less (selectivity level H)),2000 to 10000 nM
Cn1c(=O)n(CCNc2ncc(C#N)c(N[C@@H]3CC[C@H](O)C(C)(C)C3)n2)c2ccccc21 [Cmpd 291],H (selectivity level of 5-fold or less (selectivity level H)),2000 to 10000 nM
CC1(C)C[C@H](Nc2nc(NCCc3c[nH]c4ncccc34)ncc2C#N)CC[C@@H]1O [Cmpd 204],F (selectivity of between 20- and 100-fold (selectivity level F)),100 to 800 nM
Cc1ncccc1CCNc1ncc(C#N)c(N[C@H]2CC[C@@H](C(N)=O)CC2)n1 [Cmpd 322],G (selectivity between 5- and 20-fold (selectivity level G)),100 to 800 nM
CC1(C)C[C@H](Nc2nc(NCCc3cc4cc(C#N)ccc4[nH]3)ncc2C#N)CC[C@@H]1O [Cmpd 251],G (selectivity between 5- and 20-fold (selectivity level G)),100 to 800 nM
Cc1nc2ccccc2n1CCNc1ncc(C#N)c(N[C@@H]2CC[C@H](O)C(C)(C)C2)n1 [Cmpd 207],H (selectivity level of 5-fold or less (selectivity level H)),2000 to 10000 nM
Cc1cc(CCNc2ncc(C#N)c(N[C@H]3CC[C@@H](C(N)=O)CC3)n2)ncn1 [Cmpd 319],H (selectivity level of 5-fold or less (selectivity level H)),2000 to 10000 nM
CC1(C)C[C@H](Nc2nc(NCCc3ccn[nH]3)ncc2C#N)CC[C@@H]1O [Cmpd 216],G (selectivity between 5- and 20-fold (selectivity level G)),800 to 2000 nM
CC1(C)C[C@H](Nc2nc(NCCn3ccc4ccccc43)ncc2C#N)CC[C@@H]1O [Cmpd 202],H (selectivity level of 5-fold or less (selectivity level H)),2000 to 10000 nM
CC(F)(F)COc1ncncc1CNc1ncc(C#N)c(N[C@H]2CC3(C2)C[C@](C)(O)C3)n1 (stereo partly drawn) [Cmpd 294],F (selectivity of between 20- and 100-fold (selectivity level F)),100 to 800 nM
CC1(C)C[C@H](Nc2nc(NCCc3ccnc(C(F)(F)F)c3)ncc2C#N)CC[C@@H]1O [Cmpd 272],G (selectivity between 5- and 20-fold (selectivity level G)),100 to 800 nM
CC1(C)C[C@H](Nc2nc(NCCc3cnc(C4CC4)nc3)ncc2C#N)CC[C@@H]1O [Cmpd 218],H (selectivity level of 5-fold or less (selectivity level H)),2000 to 10000 nM
CC1(C)[C@@H](O)C[C@H]1Nc1nc(NCCn2ccc3ccccc32)ncc1C#N [Cmpd 239],H (selectivity level of 5-fold or less (selectivity level H)),2000 to 10000 nM
CC1(C)[C@@H](O)CCC[C@H]1Nc1nc(NCCC2C(=O)Nc3cc(F)ccc32)ncc1C#N (stereo partly drawn) [Cmpd 312],G (selectivity between 5- and 20-fold (selectivity level G)),100 to 800 nM
